Laboratory results as given in patent US7427620B2, “Azole derivative useful as antifungal agents with reduced interaction with metabolic cytochromes” (Italfarmaco SPA, priority 2003, dated 2008).

Legend:
[1] = tested on: Candida albicans; experiment: Antifungal activity, liquid phase microdilution (NCCLS M27/M38-P); assay type: cell-based
Description: (§1) Experiment A: Antifungal Activity of Compounds of the Formula (I)
(§2) The antifungal activity of the compounds of the formula (I) was determined using various strains of yeast and filamentous fungi. […] Table no.

[2] = tested on: Candida glabrata; experiment: as above; assay type: cell-based; conditions: Candida glabrata strain 02-0902
Description: as §1, §2

[3] = tested on: Candida parapsilosis; experiment: as above; assay type: cell-based; conditions: Candida parapsilosis strain ATCC22019
Description: as §1, §2

[4] = tested on: Aspergillus fumigatus; experiment: as above; assay type: cell-based; design: IC50 (minimum concentration to bring about 50% inhibition): unit not given here
Description: as §1, §2

[5] = biological target: T1, CYP1A2 (Homo sapiens, UniProt P05177); experiment: Inhibition of human cytochromes, fluorescent substrates; assay type: in vitro ADME; conditions: isoenzyme (Gentest), 37° C.
T1 construct: purchased Gentest
T1 sequence (P05177 1-516): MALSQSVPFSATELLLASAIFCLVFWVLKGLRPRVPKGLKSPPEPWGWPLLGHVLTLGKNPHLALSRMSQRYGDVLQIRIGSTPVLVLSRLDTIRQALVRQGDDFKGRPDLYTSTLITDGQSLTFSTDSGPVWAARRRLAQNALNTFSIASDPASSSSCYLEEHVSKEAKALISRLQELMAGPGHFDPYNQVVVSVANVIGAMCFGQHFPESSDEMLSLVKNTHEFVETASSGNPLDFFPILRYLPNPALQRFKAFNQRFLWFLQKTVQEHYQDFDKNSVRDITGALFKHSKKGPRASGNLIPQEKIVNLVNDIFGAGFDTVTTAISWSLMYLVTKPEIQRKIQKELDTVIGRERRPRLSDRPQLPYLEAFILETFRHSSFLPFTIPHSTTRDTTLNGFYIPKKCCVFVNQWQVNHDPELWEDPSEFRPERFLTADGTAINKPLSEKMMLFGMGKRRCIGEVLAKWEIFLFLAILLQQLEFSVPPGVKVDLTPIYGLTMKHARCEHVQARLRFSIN
Description: (§3) Experiment B: Inhibition of Human Cytochromes by Compounds of the Formula (I)
(§4) Inhibition of the enzymatic activity of the most significant isoforms of human cytochromes by the compounds of the formula (I) was measured by using specific substrates which become fluorescent as a result of the metabolic action of a particular cytochrome isoform. The individual isoenzymes (Gentest) and the respective substrates were incubated in 96 well plates in buffer containing […] at 37° C. in the presence or absence of the compound under investigation. […] The degree of inhibition of each individual isoenzyme by known inhibitors was also assessed as a positive control.

[6] = biological target: T2, CYP2C19 (Homo sapiens, UniProt P33261); experiment: as above; assay type: in vitro ADME; conditions: isoenzyme (Gentest), 37° C.
T2 construct: purchased Gentest
Description: as §3, §4

[7] = biological target: T3, CYP2C9 (Homo sapiens, UniProt P11712); experiment: as above; assay type: in vitro ADME; conditions: isoenzyme (Gentest), 37° C.
T3 construct: purchased Gentest
Description: as §3, §4

[8] = biological target: T4, CYP2D6 (Homo sapiens, UniProt P10635); experiment: as above; assay type: in vitro ADME; conditions: isoenzyme (Gentest), 37° C.
T4 construct: purchased Gentest
Description: as §3, §4

[9] = biological target: T5, CYP3A4 (Homo sapiens, UniProt P08684); experiment: as above; assay type: in vitro ADME; conditions: isoenzyme (Gentest), 37° C.
T5 construct: purchased Gentest
Description: as §3
The individual isoenzymes (Gentest) and the respective substrates were incubated in 96 well plates in buffer containing […] at 37° C. in the presence or absence of the compound under investigation. […] The degree of inhibition of each individual isoenzyme by known inhibitors was also assessed as a positive control.

[10] = tested on: Candida albicans; experiment: Mouse model of systemic candidiasis, survival; assay type: in vivo, CD1 mice; conditions: for Average survival (days) ± S.D.: observed until day 30
Description: Experiment C: Study of the Efficacy of Compounds of the Formula (I) in a Mouse Model of Systemic Candidiasis.
The C. albicans isolate was cultured for 24 h in yeast dextrose broth. The blastospores were recovered by centrifugation, repeatedly washed in sterile saline solution and the inoculum adjusted to the desired concentration. The inoculum was verified by a subsequent count of CFU/ml on Sabouraud plates.
The mice were then inoculated intravenously (0.2 ml/mouse).
24 hours after inoculation with C. albicans, the animals were randomised into the following treatment groups (10 mice/group): • 1. […] Compound under investigation: 50 mg/kg/day (two 25 mg/kg treatments twice daily at 12 hour intervals) • 3. Compound under investigation; 10 mg/kg/day (two 5 mg/kg treatments twice daily at 12 hour intervals) • 4. Control (placebo)
The compounds were administered orally (suspension in PEG 200, 0.2 ml/mouse) for 10 consecutive days and the animals were observed until day 30. The survival curves between the various treatment groups and between these groups and the control group were evaluated using the Kaplan-Meier method.

[11] = 10 mg/kg/day orally (5 mg/kg twice daily) for 10 days
[12] = 50 mg/kg/day orally (25 mg/kg twice daily) for 10 days

T2 sequence (P33261 whole entry): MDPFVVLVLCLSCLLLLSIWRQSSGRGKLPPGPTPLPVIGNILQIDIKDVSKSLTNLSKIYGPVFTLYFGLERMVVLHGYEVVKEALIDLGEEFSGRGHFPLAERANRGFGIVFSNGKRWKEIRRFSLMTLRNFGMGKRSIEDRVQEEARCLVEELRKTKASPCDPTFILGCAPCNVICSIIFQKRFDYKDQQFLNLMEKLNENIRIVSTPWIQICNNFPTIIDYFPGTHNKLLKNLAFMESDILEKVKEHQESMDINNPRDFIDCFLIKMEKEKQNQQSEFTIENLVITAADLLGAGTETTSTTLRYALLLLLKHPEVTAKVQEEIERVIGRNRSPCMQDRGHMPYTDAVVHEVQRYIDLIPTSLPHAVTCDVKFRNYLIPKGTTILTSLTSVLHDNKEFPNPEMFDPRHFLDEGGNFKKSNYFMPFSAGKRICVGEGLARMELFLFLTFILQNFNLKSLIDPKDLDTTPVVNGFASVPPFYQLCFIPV
T5 sequence (P08684 whole entry): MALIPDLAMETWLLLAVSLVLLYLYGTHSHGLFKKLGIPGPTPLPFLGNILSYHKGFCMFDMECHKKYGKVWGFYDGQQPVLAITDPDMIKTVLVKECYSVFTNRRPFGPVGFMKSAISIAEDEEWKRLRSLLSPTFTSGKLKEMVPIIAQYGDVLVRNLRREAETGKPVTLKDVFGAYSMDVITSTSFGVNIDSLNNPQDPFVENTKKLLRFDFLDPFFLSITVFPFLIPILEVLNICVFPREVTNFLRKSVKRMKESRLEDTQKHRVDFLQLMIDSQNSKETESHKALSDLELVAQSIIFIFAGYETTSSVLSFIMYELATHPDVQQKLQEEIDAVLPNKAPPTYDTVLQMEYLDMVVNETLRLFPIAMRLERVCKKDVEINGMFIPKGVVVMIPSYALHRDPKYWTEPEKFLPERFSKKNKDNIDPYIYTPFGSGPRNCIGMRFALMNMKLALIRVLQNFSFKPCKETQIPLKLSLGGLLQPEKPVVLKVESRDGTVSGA
T3 sequence (P11712 whole entry): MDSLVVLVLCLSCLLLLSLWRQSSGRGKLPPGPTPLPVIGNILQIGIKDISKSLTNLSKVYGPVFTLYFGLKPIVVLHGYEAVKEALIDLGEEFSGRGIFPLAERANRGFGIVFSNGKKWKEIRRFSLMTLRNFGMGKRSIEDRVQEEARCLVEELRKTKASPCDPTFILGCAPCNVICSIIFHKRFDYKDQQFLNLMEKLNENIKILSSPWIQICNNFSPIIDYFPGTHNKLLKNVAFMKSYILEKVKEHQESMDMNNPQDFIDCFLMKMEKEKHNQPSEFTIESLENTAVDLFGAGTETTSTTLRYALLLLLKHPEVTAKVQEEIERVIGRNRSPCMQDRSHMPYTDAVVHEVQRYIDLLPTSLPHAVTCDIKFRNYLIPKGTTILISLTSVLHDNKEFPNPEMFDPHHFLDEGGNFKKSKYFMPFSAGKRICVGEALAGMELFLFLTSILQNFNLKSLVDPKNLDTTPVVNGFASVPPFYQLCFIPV
T4 sequence (P10635 whole entry): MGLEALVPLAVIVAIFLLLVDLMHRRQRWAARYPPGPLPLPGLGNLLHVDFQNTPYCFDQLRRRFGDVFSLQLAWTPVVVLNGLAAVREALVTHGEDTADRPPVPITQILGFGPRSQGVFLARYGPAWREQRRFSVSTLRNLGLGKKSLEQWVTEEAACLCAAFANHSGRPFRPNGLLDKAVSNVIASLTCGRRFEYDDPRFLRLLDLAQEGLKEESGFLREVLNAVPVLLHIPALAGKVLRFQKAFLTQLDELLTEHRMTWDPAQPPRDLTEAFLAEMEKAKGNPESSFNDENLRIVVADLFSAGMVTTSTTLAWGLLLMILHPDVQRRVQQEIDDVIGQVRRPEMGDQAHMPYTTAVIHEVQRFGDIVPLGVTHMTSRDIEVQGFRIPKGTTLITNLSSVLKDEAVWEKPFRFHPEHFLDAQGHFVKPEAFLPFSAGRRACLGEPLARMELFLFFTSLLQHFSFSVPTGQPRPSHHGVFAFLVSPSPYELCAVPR

cis(±)-4-{4-[4-{4-[2-(pyridin-2-yl)-2-(1H-1,2,4-triazol-1-ylmethyl)-1,3-dioxolan-4-yl-methoxy]phenyl}-1-piperazinyl]-phenyl}-2-(1-(R,S)methylpropyl)-2,4-dihydro-3H-1,2,4-triazol-3-one [Example 9]
IC50 (minimum concentration to bring about 50% inhibition) ([1]; Candida albicans strain 21): 39 mg/mL | IC50 (minimum concentration to bring about 50% inhibition) ([1]; Candida albicans strain gen-45): ≦0.03 mg/ml | IC50 (minimum concentration to bring about 50% inhibition) [2]: 1 mg/mL | IC50 (minimum concentration to bring about 50% inhibition) [3]: ≦0.03 mg/ml | IC50 (minimum concentration to bring about 50% inhibition) ([4]; Aspergillus fumigatus strain 34): 0.25 | IC50 (minimum concentration to bring about 50% inhibition) ([4]; Aspergillus fumigatus strain 99-2135): 0.25 | IC50 [5]: > 100 µM | IC50 [6]: 40.7 ± 12.7 µM | IC50 [7]: 54.1 ± 5.2 µM | IC50 [8]: > 100 µM | IC50 [9]: 220 ± 50 nM | Surviving mice 21 days after infection [10, 11]: 0% | Average survival (days) ± S.D. [10, 11]: 6.6 ± 0.8 days | Surviving mice 21 days after infection [10, 12]: 10% | Average survival (days) ± S.D. [10, 12]: 9.1 ± 1.5 days
